Measured values from patent publication US7452505B2, “Method for analyzing blood test sample and dry analytical element and analytical kit utilizing the method” (Fujifilm Corporation, priority 2002, dated 2008).

What follows are compounds tested on blood platelet-rich plasma (assay: Evaluation of LDH activity of blood platelet-rich plasma samples with surfactant (JSCC transferable method)). Conditions: sample with 0.6% of surfactant, sample without surfactant taken as 100; 37° C.
Assay type: cell-based, human
Description: (2) Evaluation of LDH Activity
In Table 2, “LDH activity” means the activity of the test sample with 0.6% of surfactant, assuming that that of the test sample without surfactant to be 100.

| Compound | LDH Activity |
| --- | --- |
| C[C@H](CCC(=O)O)[C@H]1CC[C@H]2[C@@H]3CC[C@@H]4C[C@H](O)CC[C@]4(C)[C@H]3C[C@H](O)[C@]12C [deoxycholic acid, reference compound] | 199 |
| POE (5) oleylether [EMALEX 505] | 295 |
| POE (6) perfluoroalkyl ethoxylate [Example F-1405] | 102 |
| POE (10) octylether [Nissan Nonion] | 694 |
| POE (10) perfluoroalkyl [Example F-142D] | 104 |
| POE (12) oleylether [EMALEX 512] | 307 |
| POE (20) oleylether [EMALEX 520] | 297 |
| sodium α-olefin sufonate [NIKKOL OS-14] | 212 |
